Drawing on patent publication US5593970A, “Heterocyclic anthracycline analogs” (priority 1994, dated 1997), this text covers IC50 and VLB/OV3 for 19 compounds.

Common to all, as to experiment: Microculture tetrazolium assay
Holding throughout (format): cell-based

For test [1], the system named is HT29.
The subject of test [2] is SKVLB. Conditions: for VLB/OV3: IC50 ratio SKVLB/SKOV3; for IC50: SKVLB.
Test [3] concerns LOX. The settings on record: read-out: IC50.
Test [4] deals with SKOV3.
[5] abbreviates: HT29, hydrochloride, read-out: IC50.
The mark [6] stands for this setting: Homo sapiens, HT-29, HT29, read-out: IC50.
Setting [7] is: Homo sapiens, SK-OV-3, SKOV3, read-out: IC50.
The mark [8] stands for this setting: SKOV3, hydrochloride, read-out: IC50.

“And” between values parts separate entries of the source, which are not always exact repeats. Identical values can stand only once. Counter-ions that a name gives are not always drawn. Like-named read-outs stand apart in the source and are kept apart here.

`CC(=O)C1Cc2c(O)c3c(c(O)c2C(O[C@H]2C[C@H](N)[C@H](O)[C@H](C)O2)O1)C(=O)c1ccccc1C3=O` (mixture of isomers) [BCH-1130, (1'S,1S,3R) and (1'S,1R,3S)-Methyl-[5,12-dihydroxy-1-(2',3',6'-trideoxy-3'-amino-4'-hydroxy-L-lyxohexopyranose)-6,11-dioxo-3,4,6,11-tetrahydroanthraceno-(2,3-C)pyran-3-yl]ketone hydrochloride]: the IC50 in test [1] (setting [5]) came out at 0.127 µM; in test [1] (setting [6]) it was 0.17 µM; in test [2] (hydrochloride, read-out: IC50), 1.03 µM; in test [2] (read-out: IC50) it was 0.573 µM. Also, the VLB/OV3 in test [2] (hydrochloride) is 21.87 and 19.04.

In the case of `CC(=O)C1Cc2c(O)c3c(c(O)c2C(O[C@H]2C[C@H](N4CCOCC4)[C@H](O)[C@H](C)O2)O1)C(=O)c1ccccc1C3=O` (mixture of isomers) [BCH-1191, (1'S,1R,3S) and (1'S,1S,3R)-Methyl(1-(2',3',6'-trideoxy-3'-morpholino-L-lyxohexopyranose)-6,11-dioxo-5,12-dihydroxy-3,4,6,11-tetrahydroanthraceno[2,3-c]pyran-3-yl)ketone], in test [2], the VLB/OV3 is reported as 3.57 and 1.05 µM corresponded to half-maximal inhibition (IC50).

On to `C[C@@H]1O[C@@H](O[C@@H]2O[C@@H](C(C)(F)F)CC3=C2C(=O)c2cc4ccccc4c(O)c2C3=O)C[C@H](NC(=O)C(F)(F)F)[C@@H]1O` (mixture of isomers) [BCH-1677, (1'S,1R,3S) and (1'S,1S,3R)-5,12-dioxo-3-(1,1-difluoroethyl)-6-hydroxy-1-(2',3',6'-trideoxy-3'-trifluoroacetamido-L-lyxohexopyranose)-3,4,5,12-tetrahydroanthraceno-[2,3-c]-pyran], for which the IC50 in test [3] is 2.48 µM; in test [1] (setting [6]), 5.44 µM; in test [4] (setting [7]), 4.71 µM; in test [2] (read-out: IC50), 7.79 µM. The VLB/OV3 in test [2] is 1.65.

As for `CC(=O)C1CC2=C(C(=O)c3cc4ccccc4c(O)c3C2=O)C(O[C@H]2CC[C@H](NC(=O)C(F)(F)F)[C@H](C)O2)O1` (mixture of isomers) [BCH-1680, (1'S,1S,3R) and (1'S, 1R, 3S)-methyl-{6-hydroxy-1(2',3',4',6'-tetradeoxy-4'-trifluoroacetamido-L-lyxohexopyranose)-5,12-dioxo-3,4,5,12-tetrahydroanthraceno-[2,3-c]pyran-3-yl}ketone], the IC50 amounted to 2.26 µM in test [3], 2.24 µM in test [1] (setting [6]), 2.81 µM in test [4] (setting [7]) and 3.83 µM in test [2] (read-out: IC50). Besides, the VLB/OV3 in test [2] came to 1.36.

For the compound `C[C@@H]1O[C@@H](O[C@@H]2O[C@@H](C(=O)C(C)(C)C)CC3=C2C(=O)c2cc4ccccc4c(O)c2C3=O)C[C@H](NC(=O)C(F)(F)F)[C@@H]1O` (mixture of isomers) [BCH-2197, (1'S, 1S,3S) and (1'S,1R, 3R)-tert-butyl-(6-hydroxy-1-(2',3',6'-trideoxy-3'-trifluoroacetamido-4-hydroxy-L-lyxohexopyranose)-5,12-dioxo-3,4,5,12-tetrahydroanthraceno-[2,3-c]-pyran-3-yl)-ketone], the IC50 in test [1] (setting [6]) was found to be 0.52 µM; in test [4] (setting [7]) it was 2.77 µM; in test [2] (read-out: IC50), 3.02 µM. Besides, the VLB/OV3 in test [2] was 1.09.

As to `C[C@@H]1O[C@@H](O[C@H]2O[C@H](C(=O)C(C)(C)C)CC3=C2C(=O)c2cc4ccccc4c(O)c2C3=O)C[C@H](NC(=O)C(F)(F)F)[C@@H]1O` (mixture of isomers) [BCH-2198, (1'S, 1S,3S) and (1'S,1R, 3R)-tert-butyl-(6-hydroxy-1-(2',3',6'-trideoxy-3'-trifluoroacetamido-4-hydroxy-L-lyxohexopyranose)-5,12-dioxo-3,4,5,12-tetrahydroanthraceno-[2,3-c]-pyran-3-yl)-ketone], the IC50 came to 2.41 µM in test [1] (setting [6]), 4.4 µM in test [4] (setting [7]) and 4.15 µM in test [2] (read-out: IC50). The VLB/OV3 in test [2] came to 0.94.

For `CCC1Cc2c(O)c3c(c(O)c2C(C[C@H]2C[C@H](N)[C@H](O)[C@H](C)O2)O1)C(=O)c1ccccc1C3=O` (mixture of isomers) [BCH-2817, (1'S,2'R, 3'S,5'R, 1S,3R) and (1'S,2'R, 3'S,5'R, 1R, 3S)-1-(3-amino-2-hydroxy-1-methyltetrahydropyran-5-yl)methyl-3-ethyl-5,12-dihydroxy-6,11-dioxo-3,4,6,11-tetrahydroanthraceno-[2,3-c]pyran hydrochloride], the IC50 came to 3.53 µM in test [1] (setting [6]), 1.67 µM in test [4] (setting [7]) and 11 µM in test [2] (read-out: IC50). The VLB/OV3 in test [2] turned out to be 6.59.

Take `CC(=O)[C@H]1CC2=C(C(=O)c3cc4ccccc4c(O)c3C2=O)[C@H](O[C@H]2C[C@H](N)[C@H](O)[C@H](C)O2)O1` [BCH-1127]: the VLB/OV3 in test [2] was 1.87 and 3.24.

For `CC[C@H]1CC2=C(C(=O)c3cc4ccccc4c(O)c3C2=O)[C@H](O[C@H]2C[C@H](NC(=O)C(F)(F)F)[C@H](O)[C@H](C)O2)O1` [BCH-1187, (1'S,1S,3S)-5,12-dioxo-3-ethyl-6-hydroxy-1-(2',3',6'-trideoxy-3'-trifluoroacetamido-4'-hydroxy-L-lyxohexopyranose)-3,4,5,12-tetrahydroanthraceno[2,3-c]pyran], the IC50 in test [1] (HT29, read-out: IC50) was 1.98 µM; in test [1] (setting [6]), 1.42 µM; in test [4] (setting [7]), 1.2 µM; in test [4] (SKOV3, read-out: IC50), 1.85 µM; in test [2] (read-out: IC50), 3.86 µM and 3.88 µM. In addition, the VLB/OV3 in test [2] is 3.22 and 2.10.

On to `CC(=O)O[C@@H]1[C@H](C)O[C@@H](O[C@H]2S[C@H](C(C)=O)CC3=C2C(=O)c2cc4ccccc4c(O)c2C3=O)C[C@@H]1OC(C)=O` [BCH-1671], for which, in test [2], the VLB/OV3 was 0.82 and 1.00.

In the case of `CC(=O)[C@H]1Cc2c(O)c3c(c(O)c2[C@H](O[C@@H]2O[C@@H](C)[C@@H](O)[C@@H](O)C2I)O1)C(=O)c1ccccc1C3=O` (stereo partly shown) [BCH-1675], the IC50 came out at 1.18 µM in test [3] and 5.28 µM in test [1] (setting [6]).

Consider `C[C@@H]1O[C@@H](O[C@@H]2O[C@@H](c3ccccc3)CC3=C2C(=O)c2cc4ccccc4c(O)c2C3=O)C[C@H](N)[C@@H]1O` [BCH-2013], for which the half-maximal inhibitory concentration (IC50) in test [3] came to 0.554 µM; in test [2] (read-out: IC50) it was 4.64 µM.

Turning to `C=CC[C@H]1Cc2c(O)c3c(c(O)c2[C@H](O[C@H]2C[C@H](N)[C@H](O)[C@H](C)O2)O1)C(=O)c1ccccc1C3=O` [BCH-2106, (1'S,1S,3S)-3-(5,12-dihydroxy-1-(2',3',6'-trideoxy-3'-amino-4'-hydroxy-L-lyxohexopyranose)-6,11-dioxo-3,4,5,12-tetrahydroanthraceno-[2,3-c]pyran-3-yl)propene hydrochloride], the half-maximal inhibitory concentration (IC50) in test [4] (setting [7]) came out at 0.148 µM.

Turning to `C=C(C)[C@H]1Cc2c(O)c3c(c(O)c2[C@H](O[C@H]2C[C@H](N)[C@H](O)[C@H](C)O2)O1)C(=O)c1ccccc1C3=O` [BCH-2188, (1'S,1S,3R)-5,12-dihydroxy-6,11-dioxo-3-isopropenyl-1-(2',3',6'-trideoxy-3'-amino-L-lyxohexopyranose)-3,4,5,12-tetrahydroanthraceno-[2,3-c]-pyran hydrochloride], the IC50 turned out to be 0.31 µM in test [1] (setting [5]); 0.211 µM in test [1] (setting [6]); 0.374 µM in test [4] (setting [7]); 0.64 µM in test [4] (setting [8]); 0.297 µM in test [2] (hydrochloride, read-out: IC50); 0.198 µM in test [2] (read-out: IC50). Also, the VLB/OV3 in test [2] (hydrochloride) is 0.53 and 0.46.

As for `C=C(C)[C@@H]1Cc2c(O)c3c(c(O)c2[C@@H](O[C@H]2C[C@H](N)[C@H](O)[C@H](C)O2)O1)C(=O)c1ccccc1C3=O` [BCH-2189, (1'S,1R,3S)-5,12-dihydroxy-6,11-dioxo-3-isopropenyl-1-(2',3',6'-trideoxy-3'-amino-L-lyxohexopyranose)-3,4,5,12-tetrahydroanthraceno-[2,3-c]-pyran hydrochloride], the IC50 in test [1] (setting [5]) was found to be 0.144 µM; in test [1] (setting [6]) it was 0.147 µM; in test [4] (setting [7]), 0.268 µM; in test [4] (setting [8]), 0.342 µM. Besides, in test [2] (hydrochloride), the VLB/OV3 was 0.39 and 0.73.

As to `CC(C)[C@H]1Cc2c(O)c3c(c(O)c2[C@H](O[C@H]2C[C@H](N4CCOCC4)[C@H](O)[C@H](C)O2)O1)C(=O)c1ccccc1C3=O` [BCH-2190, (1'S,1S,3R)-5,12-dihydroxy-6,11-dioxo-3-isopropyl-1-(2',3',6-trideoxy-3'-(4-morpholinyl)-L-lyxohexopyranose)-3,4,5,12-tetrahydroanthraceno-[2,3-c]-pyran], the results for the IC50 in test [1] (setting [6]), in test [4] (setting [7]) and in test [2] (read-out: IC50) were 3.71 µM, 1.65 µM and 3.18 µM, respectively. In test [2], the VLB/OV3 amounted to 1.93.

For the compound `CC(C)[C@H]1Cc2c(O)c3c(c(O)c2[C@H](O[C@H]2C[C@H](N4CCOCC4)[C@H](O)[C@H](C)O2)O1)C(=O)c1ccccc1C3=O` [BCH-2192, (1'S,1S,3R)-5,12-dihydroxy-6,11-dioxo-3-isopropyl-1-(2',3',6'-trideoxy-3'(4-morpholinyl)-L-lyxohexopyranose)-3,4,5,12-tetrahydroanthraceno-[2,3-c]-pyran hydrochloride], the IC50 worked out at 4.65 µM in test [1] (setting [5]); 1.93 µM in test [4] (setting [8]); 2.28 µM in test [2] (hydrochloride, read-out: IC50). Further, the VLB/OV3 in test [2] (hydrochloride) is recorded as 1.18.

In the case of `CC(C)[C@H]1Cc2c(O)c3c(c(O)c2[C@H](O[C@H]2C[C@H](N4CCOCC4C#N)[C@H](O)[C@H](C)O2)O1)C(=O)c1ccccc1C3=O` (stereo partly drawn) [BCH-2195, (1'S,1S,3R)-5,12-dihydroxy-6,11-dioxo-3-isopropyl-1-(2',3',6'-trideoxy-3'(3-cyano-4-morpholinyl)-L-lyxohexopyranose)-3,4,5,12-tetrahydroanthraceno-[2,3-c]-pyran], the IC50 was found to be 3.4 µM in test [1] (Homo sapiens, HT-29, HT29); 4.55 µM in test [4] (Homo sapiens, SK-OV-3, SKOV3); 10.1 µM in test [2]. Also, in test [2], the VLB/OV3 was 2.22.

Turning to `C[C@@H]1O[C@@H](O[C@@H]2O[C@@H](C(=O)OC(C)(C)C)CC3=C2C(=O)c2cc4ccccc4c(O)c2C3=O)C[C@H](NC(=O)C(F)(F)F)[C@@H]1O` [BCH-2850], the IC50 is 5.1 µM in test [1] (setting [6]), 3.5 µM in test [4] (setting [7]) and 5.2 µM in test [2] (read-out: IC50). The VLB/OV3 in test [2] turned out to be 1.49.

One may read the IC50 as the point on the concentration scale where inhibition reaches its midpoint.
